The values that follow come from EP3169154B1, “DILUENT FOR SEMEN PRESERVATION” (Politécnico Colombiano Jaime Isaza Cadavid, priority 2014, dated 2016).

Usually inhibition stands for the change of the read-out against control, counted positive when it falls. A high value points to strong suppression.

Assay [1] relates to carrageenan-induced foot inflammation. The conditions noted are these: some rodents; cited from earlier work.
Assay [2] has as its system semen ejaculates. As to the kind of experiment: Lipid peroxidation inhibition in semen ejaculates. To be noted: for inhibition at 20 µM: 20 µM in diluent of Example 1; for inhibition at 40 µM: 40 µM in diluent of Example 1; for inhibition at 50 µM: 50 µM in diluent of Example 1; for inhibition at 60 µM: 60 µM in diluent of Example 1; for inhibition at 80 µM: 80 µM in diluent of Example 1; for inhibition at 100 µM: 100 µM in diluent of Example 1. Format: cell-based. As to the method: (§1) Two diluents are prepared in accordance with Example 1, adding isoespintanol to one of them, and thymol to the other. In order to determine the cytoprotective (antioxidant) potential of each, the effects of adding different concentrations of these compounds to semen ejaculates were studied. The inhibition of ROS production and the reduction of lipid peroxidation were assessed, thereby determining the effective range as well as the maximum inhibitory concentration of thymol and isoespintanol (Tables 2 and 3). Table 2. Results of the inhibition of ROS production

Assay [3] deals with semen ejaculates. As to the kind of experiment: Inhibition of ROS production in semen ejaculates. The class given is cell-based. To be noted: for inhibition at 20 µM: 20 µM in diluent of Example 1; for inhibition at 40 µM: 40 µM in diluent of Example 1; for inhibition at 50 µM: 50 µM in diluent of Example 1; for inhibition at 60 µM: 60 µM in diluent of Example 1; for inhibition at 80 µM: 80 µM in diluent of Example 1; for inhibition at 100 µM: 100 µM in diluent of Example 1. As to the method:
as §1

In another assay the test system is interleukin-1β. To be noted: cited from earlier work.

A value given as a limit tells only on which side of the number the result lay.

As to `COc1cc(C)c(OC)c(O)c1C(C)C` [isoespintanol, 2-isopropyl-3,6-dimethoxy-5-methylphenol], in assay [1], the “reduction of carrageenan-induced foot inflammation” value is 43%. For the same compound, in the assay with semen ejaculates [2], at 20 µM the inhibition was 21.1%, the inhibition at 40 µM came out at 29.9%, the inhibition at 50 µM was 29.4% and the inhibition at 60 µM was found to be 51.1%. In the assay with semen ejaculates [2], this compound gave an inhibition at 80 µM of 42.1% and an inhibition at 100 µM of 29.8%. In the assay on semen ejaculates [3], this compound had an inhibition at 20 µM of 16%, an inhibition at 40 µM of 24.2%, an inhibition at 50 µM of 34.5% and an inhibition at 60 µM of 16.9%. In the assay on semen ejaculates [3], this compound registered an inhibition at 80 µM of 6.1% and an inhibition at 100 µM of 5.6%. In addition, in the assay with interleukin-1β, the “reduction of interleukin-1β production” value was at most 72%.
On to `Cc1ccc(C(C)C)c(O)c1` [thymol, 2-isopropyl-5-methylphenol, reference compound], for which, in the assay with semen ejaculates [2], the inhibition at 20 µM came out at 48.1%, at 40 µM the inhibition was 47.7%, the inhibition at 50 µM came to 40.8% and the inhibition at 60 µM is 36.6%. Further, in the assay with semen ejaculates [2], 80 µM produced 47% inhibition and the inhibition at 100 µM was 28.3%. For the same compound, in the assay with semen ejaculates [3], the inhibition at 20 µM came to 11.7%, 40 µM produced 12.3% inhibition, at 50 µM the inhibition was 51.2% and the inhibition at 60 µM was 26%. In the assay with semen ejaculates [3], the inhibition at 80 µM is 21% and 100 µM produced 27.6% inhibition.
